Measurements: BigSolDB 2.1

CCOc1ccc2ccccc2c1C(=O)N[C@@H]1C(=O)N2[C@@H]1SC(C)(C)[C@@H]2C(=O)[O-].[Na+]
solubility (mole fraction)
Settings	278.15 K	283.15 K	288.15 K	293.15 K	298.15 K	303.15 K	308.15 K	313.15 K	318.15 K
in acetone	4.88e-05	7.1e-05	0.000106	0.000158	0.000202	0.000255	0.000309	0.000353	0.000401
in acetonitrile	2.25e-05	2.97e-05	4.09e-05	6.27e-05	7.46e-05	9.3e-05	0.000111	0.000128	0.000144
in ethanol	0.000161	0.000201	0.000246	0.00032	0.000372	0.000442	0.000509	0.000562	0.000615
in isopropanol	0.000155	0.000177	0.000201	0.000229	0.000261	0.000297	0.000337	0.000367	0.000395
in methanol	0.000605	0.000803	0.00101	0.00121	0.00149	0.00173	0.002	0.00226	0.00251
in n-butyl acetate	2.14e-05	3.21e-05	4.3e-05	5.85e-05	7.24e-05	8.6e-05	9.63e-05	0.000108	0.000117
